“Also recorded” adds a separate entry of the source.
Key:
HEK293/Null1 = test: TLR-/NLR- control cell line HEK293/Null1 stimulated with TNFa; format: cell-based, human; conditions: stimulated with TNFa at 10 ng/mL
Description: (§1) Toll-Like Receptor (TLR), NOD-Like Receptor (NLR) and C-Type Lectin Receptor (CLR) stimulation were tested by assessing NF-κB activation in HEK293 cells expressing a given TLR, NLR or CLR. The activity of the test articles was tested at one concentration and compared to control ligands. These steps were performed in triplicate. In a 96-well plate (200 μL total volume) containing the appropriate cells (50,000-75,000 cells/well), 20 μL of the test article or the positive control ligand was added to the wells. For the antagonist assay, the test article was incubated with the cells, at 37° C. with 5% CO2, for 30 minutes prior to the addition of the positive control ligand to the wells. The media added to the wells was designed for the detection of NF-κB induced SEAP expression. After a 16-24 hr incubation the optical density (OD) was read at 650 nm on a Molecular Devices SpectraMax 340PC absorbance detector.

HEK293/Null2 = test: TLR-/NLR- control cell line HEK293/Null2 stimulated with TNFa; format: cell-based, human; conditions: stimulated with TNFa at 10 ng/mL
Description: as §1

HEK293/Null = test: RIG-I-/MDA-5- control cell line HEK293/Null stimulated with hIFNα; format: cell-based, human; conditions: stimulated with recombinant hIFNα at 100 IU/mL
Description: RIG-I and MDA-5 stimulation were tested by assessing IRF3 activation in HEK293 cells expressing human RIG-I or MDA-5 genes. The activity of the test articles was tested on human RIG-I and MDA-5 expressing cells as a potential agonist or antagonist. The test articles were evaluated at one concentration and compared to control ligands. This step was performed in triplicate. The results are provided as Relative Luminescence Units (RLUs).
RIG-I^−/MDA-5^− Cell Lines: HEK293/Null: Control for human RIG-I and MDA-5 Poly(I:C)HMW/LyoVec at 1 μg/mL. Antagonist: 500 ng/mL 5′ppp-dsRNA/LyoVec at 1 μg/mL. Antagonist: 500 ng/mL hIFNα at 1000 IU/mL. Antagonist: 100 IU/mL.
In a 96-well plate (200 μL total volume) containing the appropriate cells (25,000-50,000 cells/well), 20 μL of the test article or of the positive control ligand was added to the wells. For the antagonist assay, the test article was incubated with the cells, at 37° C. with 5% CO2, for 30 minutes prior to the addition of the positive control ligand to the wells. After 20 hour incubation, activation of the IRF pathway was monitored using a luciferase detection assay. Luciferase activity was assayed in triplicate from the supernatant of the induced cells, and the relative luminescence units (RLUs) are detected by a Promega GloMax Luminometer.

dorsal horn astrocytes = test: Activation of dorsal horn astrocytes (GFAP immunofluorescence) after intrauterine LPS in mice; format: in vivo, mouse; conditions: for LPS-induced activation of spinal astrocytes (GFAP staining, dorsal horn): intrauterine, given with LPS (100 ug/kg) once per estrus cycle over three cycles, Amitriptyline 28 ug/kg, TAK-242 36 ug/kg
Text: (§2) We first recognised that neuroinflammatory conditions of the nervous system may be, at least in part, due to activation of the innate immune system within the uterus resulting in activation of glial cells in the dorsal horn of the spinal cord. To model this in mice, a study was undertaken administering LPS (lipopolysaccharide), a potent immune activator, to the uterus of mice once per estrus cycle over three cycles.
(§3) Studies were also undertaken to investigate whether a small dose of amitriptyline, an inhibitor of the pattern recognition receptors TLR, NOD, CLR, RIG-1 and MDA-5, administered with LPS within the uterus could prevent LPS-induced activation of spinal glial cells. To confirm that the amitriptyline was acting, at least in part, by blocking TLRs, an investigation was also conducted on mice given a small dose of pure TLR4 blocker-TAK-242—with LPS.
(§4) The Nonsurgical Embryo Transfer Device (Paratech, USA) was used to allow insertion of fluid into the uterus with brief, mild discomfort to the mouse, and no need for anaesthesia. Following three estrus cycles, glial activation in the dorsal horn of the spinal cord was measured using immunofluorescence. Activation of dorsal horn astrocytes was assessed using GFAP. Activation of dorsal horn microglia was assessed using Iba1. We compared the activation of spinal glia in mice with intrauterine administration of saline only, saline and LPS (100 ug/kg), saline LPS (100 ug/kg) and Amitriptyline (28 ug/kg), and saline LPS (100 ug/kg) and TAK-242 (36 ug/kg).
(§5) The spinal cord was assessed using immunohistochemistry techniques across levels T10, T11, T12, T13, L1, L2, L3, L4, L5, L6, S1 and S2 where T represents the thoracic segment of the spinal cord, L represents the lumbar segment of the spinal cord and S represents the sacral segment of the spinal cord. The regions of interest in the dorsal horn include Laminae I, II, III and IV. Changes in spinal glial reactivity are causally linked to all known models of neuroinflammatory medical conditions.

dorsal horn microglia = test: Activation of dorsal horn microglia (Iba1 immunofluorescence) after intrauterine LPS in mice; format: in vivo, mouse; conditions: intrauterine, given with LPS (100 ug/kg) once per estrus cycle over three cycles, Amitriptyline 28 ug/kg, TAK-242 36 ug/kg
Text: as §2, §3, §4, §5

spinal glial cells = test: Spinal glial activation after intrauterine LPS in mice; format: in vivo, mouse; conditions: intrauterine co-administration with LPS (100 ug/kg), Amitriptyline 28 ug/kg, TAK-242 36 ug/kg
Text: as §2, §3, §4, §5

[1] = Facial Grimace Score after intrauterine LPS in mice; format: in vivo, mouse
[2] = used orally in clinical practice; cited from earlier work
Human TLR7 = target: T1, Human TLR7 (Homo sapiens, UniProt Q9NYK1); test: Human TLR antagonist screening: NF-κB activation in HEK293 cells, TLR7; format: cell-based; conditions: antagonist mode; test article 1 μM, +CL307 10 ng/ml; No Sample 13, Control- 1
T1 construct: expressed in transfected cells; host or cells: HEK293
T1 sequence (Q9NYK1 27-1049): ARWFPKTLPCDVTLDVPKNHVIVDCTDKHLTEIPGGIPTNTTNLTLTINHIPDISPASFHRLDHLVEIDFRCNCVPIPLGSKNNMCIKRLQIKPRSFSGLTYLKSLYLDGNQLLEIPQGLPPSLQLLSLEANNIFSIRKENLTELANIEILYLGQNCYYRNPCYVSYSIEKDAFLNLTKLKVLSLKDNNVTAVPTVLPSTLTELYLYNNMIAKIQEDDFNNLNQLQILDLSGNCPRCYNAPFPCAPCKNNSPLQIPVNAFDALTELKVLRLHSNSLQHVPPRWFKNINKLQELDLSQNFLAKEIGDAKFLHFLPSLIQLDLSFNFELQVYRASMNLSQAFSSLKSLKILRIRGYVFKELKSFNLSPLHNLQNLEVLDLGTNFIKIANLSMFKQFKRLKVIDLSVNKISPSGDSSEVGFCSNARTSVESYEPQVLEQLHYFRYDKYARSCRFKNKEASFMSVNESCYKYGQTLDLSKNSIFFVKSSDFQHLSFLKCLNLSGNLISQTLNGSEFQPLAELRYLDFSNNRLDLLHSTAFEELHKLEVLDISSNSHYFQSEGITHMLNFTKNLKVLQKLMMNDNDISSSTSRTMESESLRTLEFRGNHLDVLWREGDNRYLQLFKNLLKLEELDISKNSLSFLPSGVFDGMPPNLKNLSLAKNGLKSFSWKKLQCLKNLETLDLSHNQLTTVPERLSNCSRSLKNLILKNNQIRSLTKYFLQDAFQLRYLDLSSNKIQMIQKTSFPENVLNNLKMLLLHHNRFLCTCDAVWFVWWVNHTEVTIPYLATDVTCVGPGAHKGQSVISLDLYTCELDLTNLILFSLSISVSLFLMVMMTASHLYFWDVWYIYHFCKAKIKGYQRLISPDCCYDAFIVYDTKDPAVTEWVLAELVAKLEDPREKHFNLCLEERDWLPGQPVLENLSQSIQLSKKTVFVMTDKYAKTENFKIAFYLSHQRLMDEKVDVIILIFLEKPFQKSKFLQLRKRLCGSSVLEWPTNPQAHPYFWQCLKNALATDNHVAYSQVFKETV
Description: as §1, with “triplicate. […] CL307 at 1 μg/mL Antagonist: 10 ng/mL.” for “triplicate.”, “expression.” for “expression. After a 16-24 hr incubation the optical density (OD) was read at 650 nm on a Molecular Devices SpectraMax 340PC absorbance detector.”

SMILES	effect on control cell line HEK293/Null1 (HEK293/Null1)	effect on control cell line HEK293/Null2 (HEK293/Null2)	effect on control cell line HEK293/Null (HEK293/Null)	LPS-induced activation of spinal astrocytes (GFAP staining, dorsal horn) (dorsal horn astrocytes)	LPS-induced activation of spinal astrocytes (GFAP staining, dorsal horn) (dorsal horn astrocytes; listed as amitriptyline)	integrated density of GFAP staining (activated astrocytes within the dorsal horn) (dorsal horn astrocytes; level of T12, intrauterine LPS with Amitriptyline or TAK-242 vs LPS, p=0.0002)	LPS-induced activation of spinal microglia (Iba1 staining, dorsal horn) (dorsal horn microglia)	LPS-induced activation of spinal microglia (Iba1 staining, dorsal horn) (dorsal horn microglia; listed as amitriptyline)	LPS-induced spinal glial activation (spinal glial cells)	LPS-induced spinal glial activation (spinal glial cells; listed as amitriptyline)	proportion of mice displaying severe grimace ([1]; intrauterine LPS with amitriptyline vs LPS only, categorical assessment, p=0.043)	Facial Grimace Score ([1]; mice, 24 hours following the final LPS stimulation, intrauterine LPS with Amitriptyline or TAK242)	clinical use [2]	Fold Induction (Human TLR7)
CN(C)CCC=C1c2ccccc2CCc2ccccc21 [Amitriptyline]	slight inhibitory effect	slight inhibitory effect	inhibitory effect	blocks the impact of intrauterine LPS at multiple levels of the spinal cord and appears to reduce astrocytic reactivity to below basal levels	prevented LPS-induced activation of spinal astrocytes and microglia; also recorded: reduced spinal activation of astrocytes below baseline levels; also recorded: blocked the impact of intrauterine LPS at multiple levels of the spinal cord and reduced astrocytic reactivity to below basal levels	significantly reduce LPS effect	blocked the impact of intrauterine LPS at multiple levels of the spinal cord and reduced microglial reactivity to basal levels; also recorded: appears to reduce microglial reactivity to basal levels	prevented LPS-induced activation of spinal astrocytes and microglia	showed additional activity reducing spinal glial activation above TAK-242 alone	effect was prevented	significantly reduced severe grimace behaviour	reduced these scores	has been used successfully to treat PMS and depression	–
CNCCC=C1c2ccccc2CCc2ccccc21 [Nortriptyline]	slight inhibitory effect	slight inhibitory effect	–	–	–	–	–	–	–	–	–	–	–	slight potentiating effect
